Test results published in PubChem BioAssay (NCI).
Values joined by “and” are separate entries in the source; they are usually repeats but may differ in a detail not shown here. Equal entries are not always repeated.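 Values below derive from 48-hour exposures of cells grown in 96-well plates, with endpoints linearly interpolated between the two concentrations bracketing the appropriate inhibition level. Abbreviation: GI50, concentration required for 50% inhibition of growth. TGI is the concentration that stops growth completely.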

Key:
Experiment in all cases: NCI-60 cell line screen, 48 h
786-0 renal = system: 786-0 renal
A498 renal = system: A498 renal
A549 NSCLC = system: A549 NSCLC
ACHN renal = system: ACHN renal
BT-549 breast = system: BT-549 breast
CAKI-1 renal = system: CAKI-1 renal
CCRF-CEM leukemia = system: CCRF-CEM leukemia
COLO 205 colon = system: COLO 205 colon
DU-145 prostate = system: DU-145 prostate
EKVX NSCLC = system: EKVX NSCLC
HCC-2998 colon = system: HCC-2998 colon
HCT-116 colon = system: HCT-116 colon
HCT-15 colon = system: HCT-15 colon
HL-60(TB) leukemia = system: HL-60(TB) leukemia
HOP-62 NSCLC = system: HOP-62 NSCLC
HOP-92 NSCLC = system: HOP-92 NSCLC
HS 578T breast = system: HS 578T breast
HT29 colon = system: HT29 colon
IGROV1 ovarian = system: IGROV1 ovarian
K-562 leukemia = system: K-562 leukemia
KM12 colon = system: KM12 colon
LOX IMVI melanoma = system: LOX IMVI melanoma
M14 melanoma = system: M14 melanoma
MALME-3M melanoma = system: MALME-3M melanoma
MCF7 breast = system: MCF7 breast
MDA-MB-231 breast = system: MDA-MB-231 breast
MDA-MB-435 = system: MDA-MB-435
MOLT-4 leukemia = system: MOLT-4 leukemia
NCI-H226 lung = system: NCI-H226 lung
NCI-H23 lung = system: NCI-H23 lung
NCI-H460 lung = system: NCI-H460 lung
NCI-H522 lung = system: NCI-H522 lung
NCI/ADR-RES ovarian = system: NCI/ADR-RES ovarian
OVCAR-3 ovarian = system: OVCAR-3 ovarian
OVCAR-4 ovarian = system: OVCAR-4 ovarian
OVCAR-5 ovarian = system: OVCAR-5 ovarian
OVCAR-8 ovarian = system: OVCAR-8 ovarian
PC-3 prostate = system: PC-3 prostate
RPMI-8226 leukemia = system: RPMI-8226 leukemia
RXF 393 renal = system: RXF 393 renal
SF-268 CNS = system: SF-268 CNS
SF-295 CNS = system: SF-295 CNS
SF-539 CNS = system: SF-539 CNS
SK-MEL-2 melanoma = system: SK-MEL-2 melanoma
SK-MEL-28 melanoma = system: SK-MEL-28 melanoma
SK-MEL-5 melanoma = system: SK-MEL-5 melanoma
SK-OV-3 ovarian = system: SK-OV-3 ovarian
SN12C renal = system: SN12C renal
SNB-19 CNS = system: SNB-19 CNS
SNB-75 CNS = system: SNB-75 CNS
SR leukemia = system: SR leukemia
SW-620 colon = system: SW-620 colon
T-47D breast = system: T-47D breast
TK-10 renal = system: TK-10 renal
U251 CNS = system: U251 CNS
UACC-257 melanoma = system: UACC-257 melanoma
UACC-62 melanoma = system: UACC-62 melanoma
UO-31 renal = system: UO-31 renal

With `O=C(c1c(F)ccc(NS(=O)(=O)N2CC[C@@H](F)C2)c1F)c1c[nH]c2ncc(-c3cnc(C4CC4)nc3)cc12` the GI50 (786-0 renal) was 5.46 µM and 6.36 µM, the TGI (786-0 renal) was > 10 µM and 56.7 µM and the GI50 (A498 renal) was 3.95 µM and 3.77 µM. For the same compound, the TGI (A498 renal) was > 10 µM and 23.1 µM, the GI50 (A549 NSCLC) was 5.85 µM and 7.09 µM and the TGI (A549 NSCLC) was > 10 µM and 40.3 µM. The GI50 (ACHN renal) was 4.91 µM and 4.34 µM, the TGI (ACHN renal) was > 65.9 µM and the GI50 (BT-549 breast) was > 8.75 µM and 6.83 µM. For the same compound, the TGI (BT-549 breast) was > 10 µM and 38.1 µM, the GI50 (CAKI-1 renal) was 3.22 µM and 3.29 µM and the TGI (CAKI-1 renal) was > 10 µM and 29.8 µM. For the same compound, the GI50 (CCRF-CEM leukemia) was 6.52 µM and 7.64 µM, the TGI (CCRF-CEM leukemia) was > 100 µM and the GI50 (COLO 205 colon) was 0.00482 µM and < 0.01 µM. The TGI (COLO 205 colon) was > 7.6 µM and 12.2 µM, the GI50 (DU-145 prostate) was 6.03 µM and 5.37 µM and the TGI (DU-145 prostate) was > 76.8 µM. The GI50 (EKVX NSCLC) was > 10 µM and 9.15 µM, the TGI (EKVX NSCLC) was > 10 µM and 51.5 µM and the GI50 (HCC-2998 colon) was > 10 µM and 12.5 µM. The TGI (HCC-2998 colon) was > 10 µM and 29.8 µM, the GI50 (HCT-116 colon) was 4.52 µM and 4.11 µM and the TGI (HCT-116 colon) was > 10 µM and 41.8 µM. The GI50 (HCT-15 colon) was 5.69 µM and 5.21 µM, the TGI (HCT-15 colon) was > 10 µM and 40.6 µM and the GI50 (HL-60(TB) leukemia) was 7.69 µM and 6.11 µM. The TGI (HL-60(TB) leukemia) was > 10 µM and 41.3 µM, the GI50 (HOP-62 NSCLC) was 6.24 µM and 7.01 µM and the TGI (HOP-62 NSCLC) was > 10 µM and 58.6 µM. The GI50 (HOP-92 NSCLC) was 0.576 µM and 2.24 µM, the TGI (HOP-92 NSCLC) was > 10 µM and 32.8 µM and the GI50 (HS 578T breast) was 2.33 µM and 2.06 µM. For the same compound, the TGI (HS 578T breast) was > 10 µM and 15.7 µM, the GI50 (HT29 colon) was 0.0124 µM and 0.0118 µM and the TGI (HT29 colon) was > 10 µM and 12.4 µM. The GI50 (IGROV1 ovarian) was 2.35 µM and 2.14 µM, the TGI (IGROV1 ovarian) was > 10 µM and 17 µM and the GI50 (K-562 leukemia) was 3.68 µM and 3.12 µM. The TGI (K-562 leukemia) was > 100 µM, the GI50 (KM12 colon) was 8.25 µM and 9.66 µM and the TGI (KM12 colon) was > 10 µM and 33.6 µM. For the same compound, the GI50 (LOX IMVI melanoma) was 0.305 µM and 0.342 µM, the TGI (LOX IMVI melanoma) was > 10 µM and 17.2 µM and the GI50 (M14 melanoma) was 0.00625 µM and < 0.01 µM. The TGI (M14 melanoma) was > 4.09 µM and 10.4 µM, the GI50 (MALME-3M melanoma) was 0.00378 µM and < 0.01 µM and the TGI (MALME-3M melanoma) was < 0.043 µM. For the same compound, the GI50 (MCF7 breast) was > 9.13 µM and 10.1 µM, the TGI (MCF7 breast) was > 10 µM and 44.5 µM and the GI50 (MDA-MB-231 breast) was 2.88 µM and 3.47 µM. For the same compound, the TGI (MDA-MB-231 breast) was > 10 µM and 46.8 µM, the GI50 (MDA-MB-435) was 0.0174 µM and 0.0272 µM and the TGI (MDA-MB-435) was > 10 µM and 23.1 µM. For the same compound, the GI50 (MOLT-4 leukemia) was 6.66 µM and 5.12 µM, the TGI (MOLT-4 leukemia) was > 10 µM and 35.5 µM and the GI50 (NCI-H226 lung) was 4.81 µM and 9.14 µM. The TGI (NCI-H226 lung) was > 10 µM and 64.6 µM, the GI50 (NCI-H23 lung) was > 10 µM and 10.2 µM and the TGI (NCI-H23 lung) was > 10 µM and 41.1 µM. For the same compound, the GI50 (NCI-H460 lung) was 4.25 µM and 4.67 µM, the TGI (NCI-H460 lung) was > 10 µM and 26.3 µM and the GI50 (NCI-H522 lung) was 3.05 µM and 4.34 µM. The TGI (NCI-H522 lung) was > 10 µM and 22.7 µM, the GI50 (NCI/ADR-RES ovarian) was > 10 µM and 25.2 µM and the TGI (NCI/ADR-RES ovarian) was > 100 µM. The GI50 (OVCAR-3 ovarian) was > 8.35 µM and 6.04 µM, the TGI (OVCAR-3 ovarian) was > 10 µM and 57.4 µM and the GI50 (OVCAR-4 ovarian) was 6.02 µM and 4.39 µM. The TGI (OVCAR-4 ovarian) was > 69.7 µM, the GI50 (OVCAR-5 ovarian) was > 6.42 µM and 9.04 µM and the TGI (OVCAR-5 ovarian) was > 10 µM and 46.4 µM. The GI50 (OVCAR-8 ovarian) was 5.22 µM and 7.06 µM, the TGI (OVCAR-8 ovarian) was > 10 µM and 55.3 µM and the GI50 (PC-3 prostate) was 7.03 µM and 6.82 µM. For the same compound, the TGI (PC-3 prostate) was > 10 µM and 70 µM, the GI50 (RPMI-8226 leukemia) was 5.59 µM and 5.45 µM and the TGI (RPMI-8226 leukemia) was > 10 µM and 42.2 µM. For the same compound, the GI50 (RXF 393 renal) was 3.46 µM and 4.36 µM, the TGI (RXF 393 renal) was > 10 µM and 25 µM and the GI50 (SF-268 CNS) was 5.86 µM and 6.77 µM. The TGI (SF-268 CNS) was > 10 µM and 71.3 µM, the GI50 (SF-295 CNS) was 5.87 µM and 4.71 µM and the TGI (SF-295 CNS) was > 10 µM and 33.5 µM. The GI50 (SF-539 CNS) was 6.74 µM and 6.17 µM, the TGI (SF-539 CNS) was > 10 µM and 23.7 µM and the GI50 (SK-MEL-2 melanoma) was 2.17 µM and 3.25 µM. The TGI (SK-MEL-2 melanoma) was > 8.34 µM and 15.7 µM, the GI50 (SK-MEL-28 melanoma) was 0.00375 µM and < 0.01 µM and the TGI (SK-MEL-28 melanoma) was 0.194 µM and 0.599 µM. The GI50 (SK-MEL-5 melanoma) was 1.01 µM and 0.651 µM, the TGI (SK-MEL-5 melanoma) was > 10 µM and 16.7 µM and the GI50 (SK-OV-3 ovarian) was 3.39 µM and 3.66 µM. The TGI (SK-OV-3 ovarian) was > 10 µM and 21.4 µM, the GI50 (SN12C renal) was 4.89 µM and 4.81 µM and the TGI (SN12C renal) was > 10 µM and 54.2 µM. For the same compound, the GI50 (SNB-19 CNS) was > 10 µM and 9.77 µM, the TGI (SNB-19 CNS) was > 85.4 µM and the GI50 (SNB-75 CNS) was 1.77 µM and 2.17 µM. For the same compound, the TGI (SNB-75 CNS) was > 10 µM and 12.8 µM, the GI50 (SR leukemia) was 5.35 µM and 3.93 µM and the TGI (SR leukemia) was > 10 µM and 79.6 µM. The GI50 (SW-620 colon) was > 7.76 µM and 10.9 µM, the TGI (SW-620 colon) was > 10 µM and 35 µM and the GI50 (T-47D breast) was 2.91 µM and 2.43 µM. For the same compound, the TGI (T-47D breast) was > 10 µM and 16.5 µM, the GI50 (TK-10 renal) was 3.53 µM and 8.03 µM and the TGI (TK-10 renal) was > 66.9 µM. For the same compound, the GI50 (U251 CNS) was 5.94 µM and 7.53 µM, the TGI (U251 CNS) was > 10 µM and 39.3 µM and the GI50 (UACC-257 melanoma) was 0.00965 µM and < 0.01 µM. The TGI (UACC-257 melanoma) was 0.174 µM and 0.0739 µM, the GI50 (UACC-62 melanoma) was 0.0033 µM and < 0.01 µM and the TGI (UACC-62 melanoma) was 0.13 µM and 0.123 µM. For the same compound, the GI50 (UO-31 renal) was 3.41 µM and 3.79 µM and the TGI (UO-31 renal) was > 10 µM and 25.5 µM.
